# Data reported in patent US20080027088A1, “Imidazole-Based Hmg-Coa Reductase Inhibitors” (Warner-Lambert Company, LLC, priority 2004, published 2008).
# How the values were obtained:
# Type in all cases: in vivo
# [1] = system: ApoE KO mice fed a Western diet; assay: Plasma lipoprotein cholesterol distribution by FPLC, 4 weeks; conditions: doses 0.1-1.0 mg/kg/day
# Experimental: Animal experiments—Male C57BI/6J and ApoE KO mice on C57BI/6J background were obtained from the Jackson Laboratory (Bar Harbor, Me.) or Taconic (Germantown, N.Y.) (Plaque formation in ApoE KO mice is lipid-driven (A. S. Plump et al., Cell. 1992;71 (2):343-53)). Myriocin was mixed with Western diet containing 0.21% cholesterol and 21% fat. 8-12-week-old mice received 0.3 mg myriocin/kg/day for 12 weeks (Table 1). 10-12 week-old ApoE KO mice (n=8) were pre-fed a western diet for 2 weeks and mice received various concentrations of myriocin for 4 weeks in diet admix. Control groups consisted of ApoE KO mice fed normal chow or Western diet without myriocin, and normal chow-fed C57BI/6J mice. Body weight and chow feeding was measured every week to examine the food consumption. For the femoral artery cuff model, 8-10 week-old male ApoE KO mice were anethetized and the right femoral artery was dissected from its surroundings. A nonconstrictive polyethylene cuff (Portex, 0.40-mm inner diameter, 0.80-mm outer diameter, and 1.5-mm length) was placed looselyaround the right femoral artery.
# Plasma lipids and serum amyloid A measurement—Mice were sacrificed by CO2 inhalation and blood was collected through cardiac puncture. Plasma concentrations of total cholesterol and triglyceride were determined enzymatically on a Cobas Mira Plus auto-analyzer using Cholesterol R1 and Triglycerides Reagent methods, respectively (Roche Diagnostics, Indiana, USA). Colormetric changes were measured at 500 nm. Lipoproteins were separated from mouse plasma by fast-protein liquid chromatography utilizing a Superose 6HR column. Cholesterol distribution among lipoproteins was determined by in-line post column analysis (K. A. Kieft, T. M. Bocan and B. R. Krause, J. Lipid Res. 1991; 32:859-66). Serum Amyloid A (SAA) protein in plasma was measured by ELISA according to the manufacturer's instructions (Biosource).
# FIG. 2. […] Cholesterol distribution among lipoproteins was determined by in-line post column analysis (Kieft, K. A., T. M. A. Bocan, B. R. Krause, J. Lipid Res. 1991, 32: 859-866). […]
# [2] = system: ApoE KO mice fed a Western diet; assay: Sphinganine in liver and aorta by LC/MS, 12 weeks; conditions: 0.3 mg/kg/day
# Text: Analysis of Sphingolipids and Phospholipids by LC/MS and HPLC-Total lipids were extracted by the modified method of Bligh-Dyer extraction (E. G. Bligh and W. J. Dyer, Can. J. Med. Sci. 1959;37:911-917; and D. K. Perry, A. Bielawska and Y. A. Hannun, Methods Enzymol. 2000;312:22-31). A Micromass (Waters Corp., Milford, Mass.) Quattro Ultima tandem quadrupole mass spectrometer with a standard Z-sprayTM ion source, set to electrospray positive ionization mode, with MassLynxTM version 3.5 operating software, was used for all quantitative determinations. Source conditions were typically as follows: capillary 3.5 kV, source temperature 110 degrees C., and desolvation temperature 325 degrees C. Multipliers were set to 650 V, and the dwell time for each analyte was 100 milliseconds. […] The following ion transitions were used for quantification: sphingomyelin (704→184 m/z), sphinganine (302→284 m/z), ceramide (566→264 m/z) and psychosine (462→282 m/z) as an internal standard. […] For the quantitative method, the analytical column was a Phenomenex (Torrance, Calif.) Polar-RP (2.0×150 mm, 4 μm) with a […] […] Lipid extracts were analyzed by HPLC and evaporative light scattering detector to determine plasma sphingomyelin and phosphatidylcholine (PC) levels (R. Homan and M.K. Anderson, J. Chromatogr. B. Biomed. Sci. Appl. 1998;708:21-6). […] Sphinganine levels in liver (A) and aorta (B) were determined by LC/MS. […]
# [3] = system: ApoE KO mice fed a Western diet; assay: Lipid deposition in en face aorta, Oil Red O staining, 12 weeks
# Text: Vascular pathology—For quantitative analysis of atherosclerotic lesion coverage, sacrificed mice were perfused with saline and the aorta was isolated from the heart to the iliac bifurcation by severing minor branching arteries and dissecting the adventitia. After 24 hrs of fixation with 10% buffered formalin, aorta was opened longitudinally and pinned down on the black wax. Lipids were stained with Oil Red O and photographs were taken. The percentage of aorta stained with Oil Red O was determined by image analysis software, Image Pro Plus.
# FIG. 10. Lipid deposition in aortae of Western-diet fed ApoE KO mice. ApoE KO mice were fed with Western diet in the presence or absence of myriocin for 12 weeks. Mice were sacrificed and fixed with 10% buffered formalin for 24 hours. The aorta from heart to the iliac bifurcation was dissected, opened along the ventral surface and pinned down on a black wax background. Accumulated lipids were visualized by Oil Red O staining. Areas of the atherosclerotic lesion were quantified by using Image Pro Plus and represented as percentage of lesion area to total aorta area. The values reported are mean±SEM (n=4, WD vs. WD+myriocin or normal chow, *P<0.01; Normal vs. WD+myriocin, #P<0.01). Bar represents 1 cm.
# [4] = vs Western diet-fed ApoE KO mice
smiles,measurement,setting,value
CCCCCCC(=O)CCCCCC/C=C/C[C@@H](O)[C@H](O)[C@@](N)(CO)C(=O)O [myriocin],HDL-cholesterol raised,[1],2.1 fold
same,"LDL-cholesterol lowered, at maximum",[1],63%
same,"VLDL-cholesterol lowered, at maximum",[1],83%
same,sphinganine levels in the liver lowered,[2]; [4],42%
same,sphinganine levels in aorta lower,[2]; vs Western diet-fed group,45%
same,"atherosclerotic lesion decreased, en face aorta (Oil Red O)",[3]; compared with normal chow-fed ApoE KO mice,75%
same,"atherosclerotic lesion coverage reduced, en face aorta (Oil Red O)",[3]; [4],93%
